Source: PMC3422278 (2012)

Key:
[1] = tested on: Pu27 (DNA, G4) TGGGGAGGGTGGGGAGGGTGGGGAAGG; assay: PCR stop assay (Taq polymerase); conditions: 1x PCR buffer, extension 72 °C, indirect
[2] = tested on: Pu24I (DNA, G4, inosine at 10 (G-to-I)) TGAGGGTGGGGAGGGTGGGGAAGG; assay: 1H NMR titration (imino proton shifts); conditions: 150 mM KCl, 25 mM KH2PO4; 1 mM EDTA, pH 7.0, 298 K, 90% H2O/10% D2O; 1.0 mM DNA

SMILES	binding ([1]; inhibition only at higher concentration (500 µM))	binding ([1]; 10 µM oligomers, complementary primer, effect at 125 µM, 250 µM)	binding [2]
COc1cc(NC(=O)Nc2nc3c(s2)C[C@]2(C)CC[C@@H]4[C@H](OC(=O)[C@H]4C)[C@H]2[C@@H]3C)cc(OC)c1	weak		
C[C@@H]1C(=O)O[C@H]2[C@H]1CC[C@@]1(C)Cc3sc(NC(=O)Nc4ccc(Oc5ccccc5)cc4)nc3[C@@H](C)[C@H]21		weak	yes
